PMC4666608, “Metabolic Profiling of Chicken Embryos Exposed to Perfluorooctanoic Acid (PFOA) and Agonists to Peroxisome Proliferator-Activated Receptors” (PLoS ONE, 2015)
Marks after values point to notes of the source that are not given here.

Test system: chicken embryos
Test: Metabolic profiling of blood plasma (GC-MS, LC-MS, OPLS-DA)
Type: in vivo, Gallus gallus domesticus
Conditions: LC
Procedure: Controls were injected with 20 μL vehicle only (DMSO).
Plasma was collected and stored at -70°C.
Metabolites in allantoic fluid and blood plasma were analyzed using gas chromatography-mass spectrometry (GC-MS) and liquid chromatography-mass spectrometry (LC-MS) as described in S1 Methods. Prior to GC-MS and LC-MS analysis, allantoic fluid (100 μL) and blood plasma (50 μL) were extracted. To each sample, 900 μL (allantoic fluid) or 450 μL (blood plasma) of extraction buffer (90/10 v/v methanol:water) including all internal standards were added. Standards for GC-MS were proline, succinic acid, glutamic acid, salicylic acid, alpha-ketoglutarate, putrescine, myristic acid, hexadecanoic acid, cholesterol, and sucrose. Standards for LC-MS were Val-Tyr-Val, Leu-enkephalin, sulfadimethoxine and reserpine. Samples were homogenized by shaking in a bead mill at a frequency of 30 Hz for 3 minutes and proteins were precipitated at +4°C on ice. The samples were centrifuged at +4°C, 14000 rpm, for 10 min. Then, 200 μL supernatant was transferred to a GC microvial and 200 μL was transferred to an LC microvial, and solvents were evaporated. Samples from the four replicate experiments were analyzed using in chronological order and within each replicate experiment the run order of the individual samples was randomized.
Multivariate statistical analyses of metabolite profiles were performed using the software package SIMCA-P version 13.0 (Umetrics, Umeå, Sweden). Data was centered and scaled to variance 1 (UV scaling) prior to modelling. To reduce unintended systematic variation caused by sample processing and instrument drift, GC-MS and LC-MS metabolite amounts (expressed as the area under the chromatographic peak) were normalized by Orthogonal Partial Least Squares analysis (O2PLS) prior to multivariate data analysis. O2PLS finds common (predictive) and unique (orthogonal) variation in two data matrices. If applied to find the common variation between the data matrix containing the measured metabolite concentrations and a matrix containing only the internal standards, the only common (predictive) variation expected is due to the unintended systematic variation. By deleting the contribution of the predictive latent variables, that variation can be removed from the data. Models obtained after this normalization contain in general less latent variables, and this simplification helps when deciding on the number of latent variables to be used. Following normalization, GC-MS and LC-MS data were analyzed together. Initially, a global Principal Component Analysis (PCA) was performed to get an overview of groups and trends and to identify outliers. Projections to latent structures by means of Orthogonal Partial Least Squares Discriminant Analysis (OPLS-DA) was used to model the relationship between the X-matrix (metabolite concentrations) and the Y matrix (class, i.e. exposure group or sex), and to find x-variables that were related to class belonging. OPLS-DA is a supervised prediction and regression method that rotates the projection plane to find the maximum covariance between the data and the class assignment. All groups were first analyzed together in a 5-class OPLS-DA and then each exposure group was analyzed against the control group in a 2-class OPLS-DA. Sex differences were analyzed both using the whole data set and in each group separately using 2-class OPLS-DA, with females and males as the two classes. Only variables with 80% or more nonzero values were included in the statistical models. […] The validity of each model was also checked using CV-ANOVA (ANOVA of the cross-validated residuals). A significance level of p < 0.05 was used. For each model, R ^2 X, R ^2 Y and Q ^2 values were calculated, where R ^2 X is a measure of the fraction of x variation modeled in the extracted latent variables, R ^2 Y is a measure of the fraction of y variation modeled and Q ^2 is an estimate of the predictive ability of the model and is calculated by cross-validation. […]

O=C(O)C(F)(F)C(F)(F)C(F)(F)C(F)(F)C(F)(F)C(F)(F)C(F)(F)F [PFOA, perfluorooctanoic acid]
Mean concentration relative to control, feature 659.5483@11.4915495 (PFOA 50): 1.0 | Mean concentration relative to control, feature 698.2598@1.3599721 (PFOA 50): 1.1 | Mean concentration relative to control, feature 700.5514@10.765638 (PFOA 50): 1.1 | Mean concentration relative to control, feature 755.5465@10.73882 (PFOA 50): 1 | Mean concentration relative to control, feature 827.5078@8.831237 (PFOA 50): 1.2 | Mean concentration relative to control, feature 875.4661@10.5661745 (PFOA 50): 1.0 | Mean concentration relative to control, feature 1262.4865@1.947075 (PFOA 50): 1 | Mean concentration relative to control, feature 1316.4163@1.9465046 (PFOA 50): 1.1* | Mean concentration relative to control, feature 1591.051@5.0189176 (PFOA 50): 1 | Mean concentration relative to control, feature 1591.388@5.0202384 (PFOA 50): 1 | Mean concentration relative to control, feature 1591.7203@5.018071 (PFOA 50): 1 | Mean concentration relative to control, feature 118.0284@2.480333 (C4H6O4) (PFOA 250): 1 | Mean concentration relative to control, feature 122.0486@0.675613 (PFOA 250): 1 | Mean concentration relative to control, feature 126.0428@1.2278157 (Thymine) (PFOA 250): 1.1* | Mean concentration relative to control, feature 146.0362@0.7772238 (PFOA 250): 1 | Mean concentration relative to control, feature 159.0686@1.1608156 (PFOA 250): 1.4 | Mean concentration relative to control, feature 164.0449@0.7694838 (PFOA 250): 1 | Mean concentration relative to control, feature 202.1024@5.0303197 (C8H14N2O4) (PFOA 250): 1.1 | Mean concentration relative to control, feature 203.1162@0.5130696 (PFOA 250): 0.9 | Mean concentration relative to control, feature 213.2458@7.4887733 (PFOA 250): 1.2** | Mean concentration relative to control, feature 215.047@1.6260729 (C5H14NO6P) (PFOA 250): 1.0 | Mean concentration relative to control, feature 226.0721@1.9460537 (PFOA 250): 1 | Mean concentration relative to control, feature 231.0174@1.6241412 (PFOA 250): 0.9 | Mean concentration relative to control, feature 233.1265@2.535991 (PFOA 250): 1.1 | Mean concentration relative to control, feature 250.1317@2.1334834 (PFOA 250): 0.9 | Mean concentration relative to control, feature 260.0508@0.69984084 (PFOA 250): 0.7* | Mean concentration relative to control, feature 276.0173@1.6283482 (PFOA 250): 0.9 | Mean concentration relative to control, feature 278.0939@1.3354088 (PFOA 250): 1 | Mean concentration relative to control, feature 293.0903@1.5739433 (PFOA 250): 1 | Mean concentration relative to control, feature 307.2147@7.5065937 (C18H29NO3) (PFOA 250): 2.0*** | Mean concentration relative to control, feature 310.178@7.5343466 (PFOA 250): 1.2** | Mean concentration relative to control, feature 339.3861@9.528681 (PFOA 250): 1.4* | Mean concentration relative to control, feature 342.2883@7.526812 (PFOA 250): 0.7*** | Mean concentration relative to control, feature 348.0675@1.5761927 (PFOA 250): 1 | Mean concentration relative to control, feature 355.9454@0.68034226 (PFOA 250): 1 | Mean concentration relative to control, feature 362.1467@0.8461036 (PFOA 250): 1.0 | Mean concentration relative to control, feature 366.1431@1.4228548 (PFOA 250): 1 | Mean concentration relative to control, feature 373.296@9.044806 (PFOA 250): 1.1 | Mean concentration relative to control, feature 375.3108@8.995564 (PFOA 250): 1 | Mean concentration relative to control, feature 389.2686@9.046645 (PFOA 250): 1 | Mean concentration relative to control, feature 407.0999@1.585909 (PFOA 250): 1 | Mean concentration relative to control, feature 412.135@2.4779084 (C17H24N4O6S) (PFOA 250): 1 | Mean concentration relative to control, feature 444.3607@10.33052 (PFOA 250): 0.7* | Mean concentration relative to control, feature 471.9819@0.685074 (PFOA 250): 1.1 | Mean concentration relative to control, feature 489.1508@8.562614 (PFOA 250): 0.8 | Mean concentration relative to control, feature 509.1184@2.4798179 (PFOA 250): 1 | Mean concentration relative to control, feature 525.2855@8.361063 (PFOA 250): 1 | Mean concentration relative to control, feature 545.2492@8.463657 (PFOA 250): 1.1 | Mean concentration relative to control, feature 558.4095@9.459733 (PFOA 250): 1 | Mean concentration relative to control, feature 565.1902@0.7699907 (PFOA 250): 1.0 | Mean concentration relative to control, feature 577.2747@9.25652 (PFOA 250): 1.1 | Mean concentration relative to control, feature 581.1643@0.77029324 (PFOA 250): 1.1 | Mean concentration relative to control, feature 634.2403@1.9467853 (PFOA 250): 1 | Mean concentration relative to control, feature 644.1614@0.7647065 (PFOA 250): 1.1* | Mean concentration relative to control, feature 659.5483@11.4915495 (PFOA 250): 0.9 | Mean concentration relative to control, feature 698.2598@1.3599721 (PFOA 250): 1.1 | Mean concentration relative to control, feature 700.5514@10.765638 (PFOA 250): 1.1 | Mean concentration relative to control, feature 755.5465@10.73882 (PFOA 250): 1.2 | Mean concentration relative to control, feature 827.5078@8.831237 (PFOA 250): 1.2 | Mean concentration relative to control, feature 875.4661@10.5661745 (PFOA 250): 1.0 | Mean concentration relative to control, feature 1262.4865@1.947075 (PFOA 250): 1 | Mean concentration relative to control, feature 1316.4163@1.9465046 (PFOA 250): 1.0 | Mean concentration relative to control, feature 1591.051@5.0189176 (PFOA 250): 1 | Mean concentration relative to control, feature 1591.388@5.0202384 (PFOA 250): 0.9 | Mean concentration relative to control, feature 1591.7203@5.018071 (PFOA 250): 0.9
